Results from US20260108546A1 (ELI LILLY AND COMPANY, priority 2024, published 2026).

Target: T1, hGIP-R (Homo sapiens, UniProt P48546)
T1 construct: expressed in transfected cells; host or cells: HEK-293 clonal cell lines
T1 sequence (P48546 22-466): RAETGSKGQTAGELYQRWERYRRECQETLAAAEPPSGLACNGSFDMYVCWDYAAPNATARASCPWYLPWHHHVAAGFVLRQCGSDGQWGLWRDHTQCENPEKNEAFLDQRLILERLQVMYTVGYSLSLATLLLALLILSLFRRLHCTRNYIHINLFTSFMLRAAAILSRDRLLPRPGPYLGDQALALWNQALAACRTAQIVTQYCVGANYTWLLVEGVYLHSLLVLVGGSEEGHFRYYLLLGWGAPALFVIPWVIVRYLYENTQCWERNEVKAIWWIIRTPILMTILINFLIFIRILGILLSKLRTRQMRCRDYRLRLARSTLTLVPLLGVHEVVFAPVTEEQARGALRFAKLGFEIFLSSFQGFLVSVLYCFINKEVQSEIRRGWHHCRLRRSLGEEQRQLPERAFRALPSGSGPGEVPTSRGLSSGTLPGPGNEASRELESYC
Test: Functional hGIP-R Assay (cAMP formation, HTRF)
Format: cell-based
Settings: for Emax: cAMP efficacy, percent of maximal response to GIP(1-42)OH, 37° C., 0.1% bovine casein, arithmetic mean ± SEM; for EC50: cAMP potency, HEK-293 cells expressing hGIP-R, incubated at 37° C. in the presence of 0.1% bovine casein, geometric mean, read-out: Human GIP-R EC50, nM (SEM, n)
Outline: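 Relative EC50 and Emax came from four-parameter logistic fits of cAMP as a percent of the human GIP (1-42) OH maximal response. The cAMP was measured by competitive HTRF after 30 min, 37 °C compound exposure of hGIP-R HEK-293 clones in IBMX (250 μM)-containing medium.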

SMILES | Emax | EC50
Cn1cc2cc(-c3ccc([C@H]4C[C@@]45CCN([C@H](Cc4cnn(C(F)F)c4)C(=O)NC(C)(C)Cn4nc(C(F)(F)F)cc4-c4cc(F)c(CO)cc4F)C5=O)cc3)cnc2n1 [Example 124, (R)-N-(1-(5-(2,5-Difluoro-4-(hydroxymethyl)phenyl)-3-(trifluoromethyl)-1H-pyrazol-1-yl)-2-methylpropan-2-yl)-3-(1-(difluoromethyl)-1H-pyrazol-4-yl)-2-((1R,3R)-1-(4-(2-methyl-2H-pyrazolo[3,4-b]pyridin-5-yl)phenyl)-4-oxo-5-azaspiro[2.4]heptan-5-yl)propanamide] | 56.9 ± 11.2% | 55.6 nM
Cc1nc(-c2cnc3nn(C4CC4)cc3c2)ccc1[C@H]1C[C@@]12CCN([C@H](Cc1cnn(C(F)F)c1)C(=O)NC(C)(C)Cn1nc(C(F)(F)F)cc1-c1ccn(C3CC3)c(=O)c1)C2=O [Example 169, (R)—N-(1-(5-(1-cyclopropyl-2-oxo-1,2-dihydropyridin-4-yl)-3-(trifluoromethyl)-1H-pyrazol-1-yl)-2-methylpropan-2-yl)-2-((1R,3R)-1-(6-(2-cyclopropyl-2H-pyrazolo[3,4-b]pyridin-5-yl)-2-methylpyridin-3-yl)-4-oxo-5-azaspiro[2.4]heptan-5-yl)-3-(1-(difluoromethyl)-1H-pyrazol-4-yl)propanamide] | 58.9 ± 1.86% | 1.15 nM
[2H]C([2H])([2H])n1cc(C[C@H](C(=O)NC(C)(C)Cn2nc(C(F)(F)F)cc2-c2ccc(C)nc2)N2CC[C@@]3(C[C@@H]3c3ccc(-c4cnc5nc(C6CC6)cn5c4)nc3C)C2=O)cn1 [Example 175, (R)-2-((1R,3R)-1-(6-(2-cyclopropylimidazo[1,2-a]pyrimidin-6-yl)-2-methylpyridin-3-yl)-4-oxo-5-azaspiro[2.4]heptan-5-yl)-N-(2-methyl-1-(5-(6-methylpyridin-3-yl)-3-(trifluoromethyl)-1H-pyrazol-1-yl)propan-2-yl)-3-(1-(methyl-d3)-1H-pyrazol-4-yl)propanamide] | 112 ± 1.44% | 0.996 nM
CN(C(=O)[C@H]1C[C@@H]1c1ccc(-c2cnc3nn(C)cc3c2)cc1)[C@H](Cc1cnn(C)c1)C(=O)NC(C)(C)Cn1nc(C(F)(F)F)cc1-c1cccc(=O)[nH]1 [Example 33, (1S,2S)-N-Methyl-N-((R)-1-((2-methyl-1-(5-(6-oxo-1,6-dihydropyridin-2-yl)-3-(trifluoromethyl)-1H-pyrazol-1-yl)propan-2-yl)amino)-3-(1-methyl-1H-pyrazol-4-yl)-1-oxopropan-2-yl)-2-(4-(2-methyl-2H-pyrazolo[3,4-b]pyridin-5-yl)phenyl) cyclopropane-1-carboxamide] | 108% | 133 nM
Cn1cc(C[C@@H](NC(=O)[C@H]2C[C@@H]2c2ccc(-c3cnc4nc(C(F)(F)F)cn4c3)cc2)C(=O)NC(C)(C)Cn2nc(C(F)(F)F)cc2-c2nnc[nH]2)cn1 [Example 25, (1S,2S)-N-((R)-1-((1-(5-(4H-1,2,4-Triazol-3-yl)-3-(trifluoromethyl)-1H-pyrazol-1-yl)-2-methylpropan-2-yl)amino)-3-(1-methyl-1H-pyrazol-4-yl)-1-oxopropan-2-yl)-2-(4-(2-(trifluoromethyl)imidazo [1,2-a]pyrimidin-6-yl)phenyl) cyclopropane-1-carboxamide] | 142 ± 17.3% | 82.7 nM
Cn1cc(C[C@@H](NC(=O)[C@H]2C[C@@H]2c2ccc(-c3cnc4nn(C)cc4c3)cc2)C(=O)NC(C)(C)Cn2nc(C(F)(F)F)cc2-c2ccc(=O)n(C)c2)cn1 [Example 19, (1S,2S)-N-((R)-1-((2-Methyl-1-(5-(1-methyl-6-oxo-1,6-dihydropyridin-3-yl)-3-(trifluoromethyl)-1H-pyrazol-1-yl)propan-2-yl)amino)-3-(1-methyl-1H-pyrazol-4-yl)-1-oxopropan-2-yl)-2-(4-(2-methyl-2H-pyrazolo[3,4-b]pyridin-5-yl)phenyl) cyclopropane-1-carboxamide] | 123 ± 1.72% | 66.9 nM
Cn1cc(C[C@@H](NC(=O)[C@H]2C[C@@H]2c2ccc(-c3cnc4nn(C)cc4c3)cc2)C(=O)NC(C)(C)Cn2nc(C(F)(F)F)cc2-c2cn[nH]c2)cn1 [Example 41, (1S,2S)-N—((R)-1-((2-Methyl-1-(5-(trifluoromethyl)-1′H,2H-[3,4′-bipyrazol]-2-yl)propan-2-yl)amino)-3-(1-methyl-1H-pyrazol-4-yl)-1-oxopropan-2-yl)-2-(4-(2-methyl-2H-pyrazolo[3,4-b]pyridin-5-yl)phenyl)cyclopropane-1-carboxamide] | 111 ± 4.76% | 20.2 nM
Cc1c(-c2cc(C(F)(F)F)nn2CC(C)(C)NC(=O)[C@@H](Cc2cnn(C(F)F)c2)N2CC[C@@]3(C[C@@H]3c3ccc(-c4cnc5nn(C)cc5c4)cc3)C2=O)cn(C)c(=O)c1C#N [Example 128, (R)-N-(1-(5-(5-Cyano-1,4-dimethyl-6-oxo-1,6-dihydropyridin-3-yl)-3-(trifluoromethyl)-1H-pyrazol-1-yl)-2-methylpropan-2-yl)-3-(1-(difluoromethyl)-1H-pyrazol-4-yl)-2-((1R,3R)-1-(4-(2-methyl-2H-pyrazolo[3,4-b]pyridin-5-yl)phenyl)-4-oxo-5-azaspiro[2.4]heptan-5-yl)propanamide] | 85.2 ± 1.24% | 163 nM
Cc1nc(-c2cnc3nc(C4CC4)cn3c2)ccc1[C@H]1C[C@@]12CCN([C@H](Cc1cnn(C(F)F)c1)C(=O)NC(C)(C)Cn1nc(C(F)(F)F)cc1-c1ccc(C(C)(C)O)nc1)C2=O [Example 159, (R)-2-((1R,3R)-1-(6-(2-Cyclopropylimidazo[1,2-a]pyrimidin-6-yl)-2-methylpyridin-3-yl)-4-oxo-5-azaspiro[2.4]heptan-5-yl)-3-(1-(difluoromethyl)-1H-pyrazol-4-yl)-N-(1-(5-(6-(2-hydroxypropan-2-yl)pyridin-3-yl)-3-(trifluoromethyl)-1H-pyrazol-1-yl)-2-methylpropan-2-yl)propanamide] | 95.3 ± 3.03% | 0.397 nM
Cn1cc(C[C@@H](NC(=O)[C@H]2C[C@@H]2c2ccc(-c3cnc4nn(C)cc4c3)cc2)C(=O)NC(C)(C)Cn2nc(C(F)(F)F)cc2-c2cnn3c2CNCC3)cn1 [Example 96, (1S,2S)-N—((R)-1-((2-methyl-1-(5-(4,5,6,7-tetrahydropyrazolo[1,5-a]pyrazin-3-yl)-3-(trifluoromethyl)-1H-pyrazol-1-yl)propan-2-yl)amino)-3-(1-methyl-1H-pyrazol-4-yl)-1-oxopropan-2-yl)-2-(4-(2-methyl-2H-pyrazolo[3,4-b]pyridin-5-yl)phenyl)cyclopropane-1-carboxamide] | 104 ± 4.57% | 169 nM
Cc1ncc(-c2cc(C(F)(F)F)nn2CC(C)(C)NC(=O)[C@@H](Cc2cnn(C)c2)NC(=O)[C@H]2C[C@@H]2c2ccc(-c3cnc4nn(C)cc4c3)cc2)[nH]1 [Example 15, (1S,2S)-N-((R)-1-((2-Methyl-1-(5-(2-methyl-1H-imidazol-5-yl)-3-(trifluoromethyl)-1H-pyrazol-1-yl)propan-2-yl)amino)-3-(1-methyl-1H-pyrazol-4-yl)-1-oxopropan-2-yl)-2-(4-(2-methyl-2H-pyrazolo[3,4-b]pyridin-5-yl)phenyl) cyclopropane-1-carboxamide] | 117 ± 6.6% | 24.6 nM
Cc1cn2cc(-c3ccc([C@H]4C[C@@]45CCN([C@H](Cc4cnn(C(F)F)c4)C(=O)NC(C)(C)Cn4nc(C(F)(F)F)cc4-c4ccn(C6CC6)c(=O)c4)C5=O)c(Cl)c3)cnc2n1 [Example 165, (R)-2-((1S,3R)-1-(2-chloro-4-(2-methylimidazo[1,2-a]pyrimidin-6-yl)phenyl)-4-oxo-5-azaspiro[2.4]heptan-5-yl)-N-(1-(5-(1-cyclopropyl-2-oxo-1,2-dihydropyridin-4-yl)-3-(trifluoromethyl)-1H-pyrazol-1-yl)-2-methylpropan-2-yl)-3-(1-(difluoromethyl)-1H-pyrazol-4-yl)propanamide] | 65.7 ± 4.25% | 0.44 nM
Cn1cc(C[C@@H](NC(=O)[C@H]2C[C@@H]2c2ccc(-c3cnc4nc(C(F)(F)F)cn4c3)cc2)C(=O)NC(C)(C)Cn2nc(C(F)(F)F)cc2-n2ccnn2)cn1 [Example 23, (1S,2S)-N-((R)-1-((1-(5-(1H-1,2,3-Triazol-1-yl)-3-(trifluoromethyl)-1H-pyrazol-1-yl)-2-methylpropan-2-yl)amino)-3-(1-methyl-1H-pyrazol-4-yl)-1-oxopropan-2-yl)-2-(4-(2-(trifluoromethyl)imidazo [1,2-a]pyrimidin-6-yl)phenyl) cyclopropane-1-carboxamide] | 111 ± 11.6% | 44.4 nM
Cn1cc2cc(-c3ccc([C@H]4C[C@@H]4C(=O)N[C@H](Cc4cnn(C(F)F)c4)C(=O)NC(C)(C)Cn4nc(C(F)(F)F)cc4Br)cc3)cnc2n1 [Example 12, (1S,2S)-N-((R)-1-((1-(5-bromo-3-(trifluoromethyl)-1H-pyrazol-1-yl)-2-methylpropan-2-yl)amino)-3-(1-(difluoromethyl)-1H-pyrazol-4-yl)-1-oxopropan-2-yl)-2-(4-(2-methyl-2H-pyrazolo[3,4-b]pyridin-5-yl)phenyl) cyclopropane-1-carboxamide] | 106 ± 5.38% | 104 nM
